Reference: US20180344756A1, “METHODS FOR THE TREATMENT AND PREVENTION OF RENAL DISORDERS AND FATTY LIVER DISORDERS” (Janssen Pharmaceutica NV, priority 2014, published 2018)

Tests used:
[1] = Albuminuria in the DIA3004 clinical trial, subjects with moderate renal impairment; assay type: in vivo, human; conditions: 52-week study, placebo 19.7%
Description: (§1) The albumin/creatinine ratio was measured at baseline, over 12 weeks, over 52 weeks, and over 104 weeks, in subjects participating in the CANagliflozin cardioVascular Assessment Study (CANVAS), the DIA3004 clinical trial, and the DIA3009 clinical trial, respectively. (Complete protocol details for the CANVAS, DIA3004 and DIA3009 clinical trials are available on www.clinicaltrials.gov).

[2] = eGFR change from baseline over time in the CANVAS, DIA3004 and DIA3009 clinical trials; assay type: in vivo, human; conditions: maximal at first post baseline visit, stable or attenuated with continued treatment; CANVAS and DIA3004 52 weeks, DIA3009 104 weeks; FIG. 3-5
Text: The time course of eGFR changes over 52 weeks in the CANVAS clinical trial is shown in FIG. 3; over a 52-week study in subjects with moderate renal impairment (in the DIA3004 clinical trial) are shown in FIG. 4; and over a 104-week period in an active comparator study (DIA3009, add-on to metformin) are shown in FIG. 5.

[3] = Albumin/creatinine ratio in the CANVAS clinical trial, subjects with micro- or macroalbuminuria; assay type: in vivo, human; conditions: for median percent change from baseline in ACR at Week 52: subjects with macroalbuminuria, Week 52, 82% of subjects on ACEIs or ARBs at baseline, placebo −3.6%
Description: as §1
In subjects with macroalbuminuria in CANVAS, the median percent change from baseline in ACR at Week 52 was −3.6% in the placebo group, −58.6% in the canagliflozin 100 mg group, and −53.3% in the canagliflozin 300 mg group.

[4] = metformin on its own, in the diabetic; cited from earlier work

| SMILES | median percent reductions in albuminuria ([1]; baseline eGFR 30 to <50 ml/min/1.73 m^2, canagliflozin 100 mg) | median percent reductions in albuminuria ([1]; baseline eGFR 30 to <50 ml/min/1.73 m^2, canagliflozin 300 mg) | effect on eGFR (in words) [2] | median percent change from baseline in ACR at Week 52 ([3]; canagliflozin 100 mg) | median percent change from baseline in ACR at Week 52 ([3]; canagliflozin 300 mg) | albuminuria after 52 weeks of treatment (in words) ([3]; subjects with micro- and macroalbuminuria at baseline, FIG. 1 and FIG. 2) | average improvement in the HbA1c value [4] |
| --- | --- | --- | --- | --- | --- | --- | --- |
| Cc1ccc([C@@H]2O[C@H](CO)[C@@H](O)[C@H](O)[C@H]2O)cc1Cc1ccc(-c2ccc(F)cc2)s1 [canagliflozin] | −16.4% | −28.0% | dose-dependent, reversible reduction in eGFR | −58.6% | −53.3% | reductions in albuminuria |  |
| CN(C)C(=N)N=C(N)N [metformin] |  |  |  |  |  |  | 1.0-1.5% |
